Here are results for 3 molecules from article PMC12188165, “Engineering of the Thiamine Diphosphate‐Dependent JanthE for the Synthesis of Tertiary Alcohols” (Chemistry (Weinheim an Der Bergstrasse, Germany), 2025).

One series addresses T1, JanthE (Janthinobacterium sp. HH01, UniProt A0AAT8XUE4, K568S, form not given).
T1 construct: purified enzyme; expression and tag details only in supplement
As to the kind of experiment: initial-rate kinetics, formation of product […]. Format: biochemical. Conditions: 1 mM Mg2+, 0.05 mM ThDP, 200 mM NaCl, 100 mM sodium phosphate pH 8, read-out: K567S.

Substrate in series [1]: CC(=O)COc1ccccc1
As to the kind of experiment: purified protein. Format: biochemical, Janthinobacterium sp. HH01. The settings on record: 50 mM 2-oxobutanoate co-substrate, 1 mM Mg2+, 0.05 mM ThDP, 200 mM NaCl, 100 mM sodium phosphate pH 8.

Substrate in series [2]: CCC(=O)C(=O)O
Briefly: purified protein. Format: biochemical, Janthinobacterium sp. HH01. Conditions: 20 mM phenoxy-2-propanone co-substrate, 1 mM Mg2+, 0.05 mM ThDP, 200 mM NaCl, 100 mM sodium phosphate pH 8.

Like-named read-outs stand apart in the source and are kept apart here.

T1 sequence (A0AAT8XUE4 entry or part of it K568S, form open): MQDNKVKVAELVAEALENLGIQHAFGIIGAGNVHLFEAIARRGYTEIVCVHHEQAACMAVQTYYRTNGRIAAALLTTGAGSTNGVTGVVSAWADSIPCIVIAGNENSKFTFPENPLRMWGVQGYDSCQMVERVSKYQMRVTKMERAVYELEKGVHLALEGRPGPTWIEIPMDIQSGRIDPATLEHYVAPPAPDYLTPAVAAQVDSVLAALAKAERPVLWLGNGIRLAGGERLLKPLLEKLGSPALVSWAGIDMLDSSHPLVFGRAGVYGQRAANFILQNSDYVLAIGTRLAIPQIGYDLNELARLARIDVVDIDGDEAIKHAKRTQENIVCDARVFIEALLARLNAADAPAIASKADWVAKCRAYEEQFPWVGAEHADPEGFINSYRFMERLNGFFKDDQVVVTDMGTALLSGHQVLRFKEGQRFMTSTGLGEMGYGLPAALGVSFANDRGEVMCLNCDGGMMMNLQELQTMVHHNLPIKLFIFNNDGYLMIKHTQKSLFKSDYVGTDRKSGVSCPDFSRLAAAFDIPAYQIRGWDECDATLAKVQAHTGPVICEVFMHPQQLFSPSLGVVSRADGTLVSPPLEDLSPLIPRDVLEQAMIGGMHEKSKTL

Turning to `CCC(=O)C(=O)O` [compound 2, 2-oxobutanoate], the Km on JanthE (20 mM phenoxy-2-propanone co-substrate) is 0.74 ± 0.31 mM.
As for `CC(=O)COc1ccccc1` [compound 6, phenoxy-2-propanone], the Km on JanthE (50 mM 2-oxobutanoate co-substrate) is 31.8 ± 6 mM.

B1: JanthE (Janthinobacterium sp. HH01) (protein)
chain: MQDNKVKVAELVAEALENLGIQHAFGIIGAGNVHLFEAIARRGYTEIVCVHHEQAACMAVQTYYRTNGRIAAALLTTGAGSTNGVTGVVSAWADSIPCIVIAGNENSKFTFPENPLRMWGVQGYDSCQMVERVSKYQMRVTKMERAVYELEKGVHLALEGRPGPTWIEIPMDIQSGRIDPATLEHYVAPPAPDYLTPAVAAQVDSVLAALAKAERPVLWLGNGIRLAGGERLLKPLLEKLGSPALVSWAGIDMLDSSHPLVFGRAGVYGQRAANFILQNSDYVLAIGTRLAIPQIGYDLNELARLARIDVVDIDGDEAIKHAKRTQENIVCDARVFIEALLARLNAADAPAIASKADWVAKCRAYEEQFPWVGAEHADPEGFINSYRFMERLNGFFKDDQVVVTDMGTALLSGHQVLRFKEGQRFMTSTGLGEMGYGLPAALGVSFANDRGEVMCLNCDGGMMMNLQELQTMVHHNLPIKLFIFNNDGYLMIKHTQKSLFKSDYVGTDRKSGVSCPDFSRLAAAFDIPAYQIRGWDECDATLAKVQAHTGPVICEVFMHPQQLFSPKLGVVSRADGTLVSPPLEDLSPLIPRDVLEQAMIGGMHEKSKTL
notes: purified enzyme; expression and tag details only in supplement
With B1, the Km in the series “purified protein [1]” is 24.6 ± 3.8 mM; in the series “purified protein [2]” it was 0.92 ± 0.26 mM.
